According to patent publication US10738056B2 (Aduro BioTech, Inc., priority 2017, dated 2020):

How the values were obtained:
[1] = molecular target: Human cGAS amino acids 155-522 (Homo sapiens (Human), UniProt Q8N884); test: cGAS biochemical activity assay (ATP remaining, Kinase-Glo Max luminescence); settings: human cGAS 155-522, ATP remaining (Kinase-Glo Max); read-out: cGAS IC50
[2] = test system: cGAS/STING pathway in THP1 cells; test: THP1 cell-based cGAS/STING pathway activity assay (IRF-3-linked luciferase reporter); settings: Homo sapiens, THP-1
Method in brief: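 THP1 cells carrying an IRF-3-driven luciferase reporter were read across a range of compound concentrations, and IC50 values were derived from these concentration responses; the assay upper limit was 100 μM.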

Human cGAS amino acids 155-522, sequence (Q8N884 157-522): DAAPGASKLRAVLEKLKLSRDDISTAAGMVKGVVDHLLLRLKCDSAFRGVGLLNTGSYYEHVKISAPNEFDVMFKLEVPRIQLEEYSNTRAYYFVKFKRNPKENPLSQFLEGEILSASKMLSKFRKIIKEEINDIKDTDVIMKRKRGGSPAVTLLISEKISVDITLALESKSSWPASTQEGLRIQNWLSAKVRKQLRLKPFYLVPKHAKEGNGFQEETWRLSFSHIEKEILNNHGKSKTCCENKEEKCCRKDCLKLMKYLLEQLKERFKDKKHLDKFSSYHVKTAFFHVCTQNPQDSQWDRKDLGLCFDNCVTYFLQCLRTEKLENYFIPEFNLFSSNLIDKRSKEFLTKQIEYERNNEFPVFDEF

SMILES	IC50 [1]	IC50 [2]
Cc1[nH]c2c(-c3ccccc3)c(C(F)(F)F)nn2c(=O)c1-c1nc2c(C#N)cccc2o1 [Compound C1075, 2-(5-methyl-7-oxo-3-phenyl-2-(trifluoromethyl)-4,7-dihydropyrazolo[1,5-a]pyrimidin-6-yl)benzo[d]oxazole-4-carbonitrile]	< 20 µM	> 100 µM
COc1cccc2oc(-c3c(C(N)=O)[nH]c4c(-c5ccccc5)c(C(F)(F)F)nn4c3=O)nc12 [Compound C1132, 6-(4-methoxybenzo[d]oxazol-2-yl)-7-oxo-3-phenyl-2-(trifluoromethyl)-4,7-dihydropyrazolo[1,5-a]pyrimidine-5-carboxamide]	< 20 µM	> 100 µM
Cc1[nH]c2c(-c3ccccc3)c(C(F)(F)F)nn2c(=O)c1-c1ncco1 [Compound C1170, 5-methyl-6-(oxazol-2-yl)-3-phenyl-2-(trifluoromethyl)pyrazolo[1,5-a]pyrimidin-7(4H)-one]	< 20 µM	> 100 µM
COc1ccnc(NC(=O)c2c(C)[nH]c3c(-c4ccccc4)c(C(F)(F)F)nn3c2=O)n1 [Compound A1104, N-(4-methoxypyrimidin-2-yl)-5-methyl-7-oxo-3-phenyl-2-(trifluoromethyl)-4,7-dihydropyrazolo[1,5-a]pyrimidine-6-carboxamide]	< 20 µM	20 to 100 µM
COc1cccc2oc(-c3c(C(=O)O)[nH]c4c(-c5ccccc5)c(C#N)nn4c3=O)nc12 [Compound C1249, 2-cyano-6-(4-methoxybenzo[d]oxazol-2-yl)-7-oxo-3-phenyl-4,7-dihydropyrazolo[1,5-a]pyrimidine-5-carboxylic acid]	< 20 µM	> 100 µM
Cc1[nH]c2c(-c3ccccc3)c(C(F)(F)F)nn2c(=O)c1-c1nnc(NC(=N)N)o1 [Compound D1077, 1-(5-(5-methyl-7-oxo-3-phenyl-2-(trifluoromethyl)-4,7-dihydropyrazolo[1,5-a]pyrimidin-6-yl)-1,3,4-oxadiazol-2-yl)guanidine]	< 20 µM	> 100 µM
Cc1[nH]c2c(-c3ccccc3)c(C(F)(F)F)nn2c(=O)c1C(=O)Nc1ccccc1 [Compound A1002, 5-methyl-7-oxo-N,3-diphenyl-2-(trifluoromethyl)-4,7-dihydropyrazolo[1,5-a]pyrimidine-6-carboxamide]	< 20 µM	20 to 100 µM
Cc1[nH]c2c(-c3ccccc3)c(C(F)(F)F)nn2c(=O)c1C(=O)Nc1ccn(C(C)C)n1 [Compound A1065, N-(1-isopropyl-1H-pyrazol-3-yl)-5-methyl-7-oxo-3-phenyl-2-(trifluoromethyl)-4,7-dihydropyrazolo[1,5-a]pyrimidine-6-carboxamide]	< 20 µM	20 to 100 µM
Cc1[nH]c2c(-c3ccccc3)c(C#N)nn2c(=O)c1-c1nc2ccc(N)cc2o1 [Compound C1193, 6-(6-aminobenzo[d]oxazol-2-yl)-5-methyl-7-oxo-3-phenyl-4,7-dihydropyrazolo[1,5-a]pyrimidine-2-carbonitrile]	< 20 µM	> 100 µM
Cc1[nH]c2c(-c3ccccc3)c(C(F)(F)F)nn2c(=O)c1-c1nc2ccccc2n1CC(F)(F)F [Compound C1231, 5-methyl-3-phenyl-6-(1-(2,2,2-trifluoroethyl)-1H-benzo[d]imidazol-2-yl)-2-(trifluoromethyl)pyrazolo[1,5-a]pyrimidin-7(4H)-one]	20 to 250 µM	< 20 µM
Cc1[nH]c2c(-c3ccccc3)c(C(F)(F)F)nn2c(=O)c1C(=O)NS(=O)(=O)c1ccccn1 [Compound A1120, 5-methyl-7-oxo-3-phenyl-N-(pyridin-2-ylsulfonyl)-2-(trifluoromethyl)-4,7-dihydropyrazolo[1,5-a]pyrimidine-6-carboxamide]	< 20 µM	> 100 µM
COc1ccc(C(=O)O)c2oc(-c3c(C)[nH]c4c(-c5ccccc5)c(C(F)(F)F)nn4c3=O)nc12 [Compound C1130]	< 20 µM	20 to 100 µM
COc1cc(C(=O)O)cc2oc(-c3c(C)[nH]c4c(-c5ccccc5)c(C(F)(F)F)nn4c3=O)nc12 [Compound C1155, 4-methoxy-2-(5-methyl-7-oxo-3-phenyl-2-(trifluoromethyl)-4,7-dihydropyrazolo[1,5-a]pyrimidin-6-yl)benzo[d]oxazole-6-carboxylic acid]	< 20 µM	20 to 100 µM
Cc1[nH]c2c(-c3ccccc3)c(C(F)(F)F)nn2c(=O)c1C(=O)Nc1cccc2c1CCO2 [Compound A1102, N-(2,3-dihydrobenzofuran-4-yl)-5-methyl-7-oxo-3-phenyl-2-(trifluoromethyl)-4,7-dihydropyrazolo[1,5-a]pyrimidine-6-carboxamide]	< 20 µM	> 100 µM
COCc1nnc(-c2c(C)[nH]c3c(-c4ccccc4)c(C(F)(F)F)nn3c2=O)o1 [Compound D1019, 6-(5-(methoxymethyl)-1,3,4-oxadiazol-2-yl)-5-methyl-3-phenyl-2-(trifluoromethyl)pyrazolo[1,5-a]pyrimidin-7(4H)-one]	< 20 µM	> 100 µM
COc1cccc2oc(-c3c(CO)[nH]c4c(-c5ccccc5)c(C(F)(F)F)nn4c3=O)nc12 [Compound C1103, 5-(hydroxymethyl)-6-(4-methoxybenzo[d]oxazol-2-yl)-3-phenyl-2-(trifluoromethyl)pyrazolo[1,5-a]pyrimidin-7(4H)-one]	< 20 µM	20 to 100 µM
COc1cccc2oc(-c3c(C(=O)Nc4ccn(C)n4)[nH]c4c(-c5ccccc5)c(C(F)(F)F)nn4c3=O)nc12 [Compound C1256, 6-(4-methoxybenzo[d]oxazol-2-yl)-N-(1-methyl-1H-pyrazol-3-yl)-7-oxo-3-phenyl-2-(trifluoromethyl)-4,7-dihydropyrazolo[1,5-a]pyrimidine-5-carboxamide]	< 20 µM	> 100 µM
Cc1[nH]c2c(-c3ccccc3)c(C(F)(F)F)nn2c(=O)c1-c1nc2c(OCCN)cccc2o1 [Compound C1061, 6-(4-(2-aminoethoxy)benzo[d]oxazol-2-yl)-5-methyl-3-phenyl-2-(trifluoromethyl)pyrazolo[1,5-a]pyrimidin-7(4H)-one]	20 to 250 µM	20 to 100 µM

Now from value to compound:

IC50 [1]	IC50 [2]	SMILES
< 20 µM	20 to 100 µM	COC1(c2nnc(-c3c(C)[nH]c4c(-c5ccccc5)c(C(F)(F)F)nn4c3=O)o2)CCCC1 [Compound D1055, 6-(5-(1-methoxycyclopentyl)-1,3,4-oxadiazol-2-yl)-5-methyl-3-phenyl-2-(trifluoromethyl)pyrazolo[1,5-a]pyrimidin-7(4H)-one]
< 20 µM	> 100 µM	COCc1coc(-c2c(C)[nH]c3c(-c4ccccc4)c(C(F)(F)F)nn3c2=O)n1 [Compound C1108, 6-(4-(methoxymethyl)oxazol-2-yl)-5-methyl-3-phenyl-2-(trifluoromethyl)pyrazolo[1,5-a]pyrimidin-7(4H)-one]
< 20 µM	< 20 µM	COc1[nH]c2c(-c3ccccc3)c(C(F)(F)F)nn2c(=O)c1-c1nc2c(OC)cccc2o1 [Compound C1084, 5-methoxy-6-(4-methoxybenzo[d]oxazol-2-yl)-3-phenyl-2-(trifluoromethyl)pyrazolo[1,5-a]pyrimidin-7(4H)-one]
< 20 µM	20 to 100 µM	Cc1cc(NC(=O)c2c(C)[nH]c3c(-c4ccccc4)c(C(F)(F)F)nn3c2=O)[nH]n1 [Compound A1081, 5-methyl-N-(3-methyl-1H-pyrazol-5-yl)-7-oxo-3-phenyl-2-(trifluoromethyl)-4,7-dihydropyrazolo[1,5-a]pyrimidine-6-carboxamide]
< 20 µM	20 to 100 µM	CC(=O)Nc1cccc2nc(-c3c(C)[nH]c4c(-c5ccccc5)c(C(F)(F)F)nn4c3=O)[nH]c12 [Compound C1009, N-(2-(5-methyl-7-oxo-3-phenyl-2-(trifluoromethyl)-4,7-dihydropyrazolo[1,5-a]pyrimidin-6-yl)-1H-benzo[d]imidazol-7-yl)acetamide]
< 20 µM	20 to 100 µM	Cc1[nH]c2c(-c3ccccc3)c(C(F)(F)F)nn2c(=O)c1C(=O)NS(=O)(=O)c1ccccc1 [Compound A1116, 5-methyl-7-oxo-3-phenyl-N-(phenylsulfonyl)-2-(trifluoromethyl)-4,7-dihydropyrazolo[1,5-a]pyrimidine-6-carboxamide]
< 20 µM	20 to 100 µM	COc1cccc2nc(-c3c(C)[nH]c4c(-c5ccccc5)c(C(F)(F)F)nn4c3=O)oc12 [Compound C1022, 6-(7-methoxybenzo[d]oxazol-2-yl)-5-methyl-3-phenyl-2-(trifluoromethyl)pyrazolo[1,5-a]pyrimidin-7(4H)-one]
< 20 µM	> 100 µM	Cc1[nH]c2c(-c3ccccc3)c(C(F)(F)F)nn2c(=O)c1-c1nnc(C2CCCCN2S(C)(=O)=O)o1 (stereo not shown) [Compound D1056, 5-methyl-6-(5-(1-(methylsulfonyl)piperidin-2-yl)-1,3,4-oxadiazol-2-yl)-3-phenyl-2-(trifluoromethyl)pyrazolo[1,5-a]pyrimidin-7(4H)-one]
< 20 µM	20 to 100 µM	COc1cccc2oc(-c3c(C)[nH]c4c(-c5ccccc5)c(C#N)nn4c3=O)nc12 [Compound C1051, 6-(4-methoxybenzo[d]oxazol-2-yl)-5-methyl-7-oxo-3-phenyl-4,7-dihydropyrazolo[1,5-a]pyrimidine-2-carbonitrile]
< 20 µM	20 to 100 µM	Cc1nc(NC(=O)c2c(C)[nH]c3c(-c4ccccc4)c(C(F)(F)F)nn3c2=O)oc1C [Compound A1056, N-(4,5-dimethyloxazol-2-yl)-5-methyl-7-oxo-3-phenyl-2-(trifluoromethyl)-4,7-dihydropyrazolo[1,5-a]pyrimidine-6-carboxamide]
< 20 µM	> 100 µM	COc1cccc2oc(-c3c(COCc4cnc[nH]4)[nH]c4c(-c5ccccc5)c(C(F)(F)F)nn4c3=O)nc12 [Compound C1182, 5-(((1H-imidazol-5-yl)methoxy)methyl)-6-(4-methoxybenzo[d]oxazol-2-yl)-3-phenyl-2-(trifluoromethyl)pyrazolo[1,5-a]pyrimidin-7(4H)-one]
